# Laboratory results published in patent US20080286394A1, “NOVEL HERBAL FORMULATION AS BRAIN TONIC” (priority 2003, published 2008).
# Where “and” joins values, the source holds several entries; their conditions need not be identical. Equal entries are not always repeated. Marks after values point to notes of the source that are not given here.
# System: impairment of memory acquisition in step-down test in mice
# Experiment: Passive avoidance task (step-down test), scopolamine-induced impairment of memory acquisition
# Format: in vivo
# Conditions: scopolamine 0.4 mg/kg alone (amnesia-inducing agent)
compound,measurement,value
"CN1[C@@H]2C[C@@H](OC(=O)[C@H](CO)c3ccccc3)C[C@H]1[C@@H]1O[C@@H]12 [Scopalamine, scopolamine]",Latency (sec),7.7 ± 0.04^c sec and 7.8 ± 0.03^c sec and 7.8 ± 0.04^c sec
same,No of mistakes,66.8 ± 8.9^c and 65.3 ± 8.6^c and 69.8 ± 8.9^c
